Consider three molecules from publication PMC5512541 (Science translational medicine, 2016).

One data set relates to amyloid pathology. Particulars: administration in a mouse model of AD; ref [65]; cited from earlier work.
For data set [1] the following is noted: mouse interstitial fluid (ISF); endogenous Aβ; ref [8], [9]; cited from earlier work.
For data set [2] the following is noted: human cerebrospinal fluid (CSF); endogenous Aβ; ref [8], [9]; cited from earlier work.
The next data set concerns ISF Aβ40 and Aβ42. Briefly: In vivo microdialysis of hippocampal ISF Aβ after γ-secretase inhibitor. Further details: species or system mouse. The conditions noted are these: APP/PS1 and APP/PS1; nExt1CKO mice, 3-4 months; LY411575 5 mg/kg intraperitoneally; hippocampal microdialysis samples every 60 min for 6 hr; ELISA.

Like-named read-outs stand apart in the source and are kept apart here.

As to low-molecular-weight heparin, in the data set on amyloid pathology, the “effect on amyloid pathology” value was “reduced amyloid pathology”.
As to amyloid-β [Aβ], the “half-life in the brain” value in data set [1] was 1 to 2 h; in data set [2] it was ~ 8 hours.
Turning to `C[C@H](NC(=O)[C@@H](O)c1cc(F)cc(F)c1)C(=O)N[C@@H]1C(=O)N(C)c2ccccc2-c2ccccc21` [γ-secretase inhibitor, LY411575], in the data set on ISF Aβ40 and Aβ42, the “ISF Aβ40 and Aβ42 concentration after treatment” value was “gradually decreased in a time-dependent manner”.
